Assay results: article PMC7749613 (Journal of Cachexia, Sarcopenia and Muscle, 2020)
Bridge positions count the residues as written; N and C are the ends. Square brackets hold non-standard residues; d marks the D form. Peptide text beside a SMILES is read from it. d2Nal = N[C@H](Cc1ccc2ccccc2c1)C(=O)O; Nle = CCCC[C@H](N)C(=O)O

Experiments:
[1] = In vivo mass balance study (urinary and faecal recovery) in mice; conditions: mouse, in vivo; for dose excreted at 24 h: total radioactivity
Description: Each mouse was then placed in a metabolic cage for 24 h, along with food and water, and the urine and faeces were collected. The metabolic cage was washed several times, after which 100 μL aliquots of diluted urine and faeces was placed in separate vials. Radioactivity measurements were then performed as described previously. All animal procedures were approved by the Institutional Animal Care and Use Committee at the University of Michigan, Ann Arbor.

human P‐gp (ABCB1, MDR1) = molecular target: T1, human P‐gp (ABCB1, MDR1) (Homo sapiens, UniProt P08183); experiment: Transepithelial transport of digoxin (±TCMCB07) in MDCKII/MDR1 cells; type: in vitro ADME
T1 construct: host or cells: MDCKII
Description: Cells were then washed three times, each with 0.5 mL pre‐warmed HBSS buffer. […] The cells were then incubated for various times up to 60 min. […] At the designated times, 15 μL of apical buffer and 50 μL of basolateral buffer were sampled. Once all the samples were collected, 0.5 mL of ice‐cold HBSS buffer was added to the well to stop transport after which the cells were rinsed three times with 0.5 mL of ice‐cold HBSS. The filters with monolayers were then detached from the chamber and placed in a scintillation vial, and the cells were lysed with 0.33 mL hyamine hydroxide.
The permeability of digoxin and rosuvastatin (prototypical substrates for MDR1 and BCRP, respectively) was determined by the following ^18 : (4) Papp=CR·VR/CD^o·A·∆Δt, where Papp is the apparent permeability, CR is the concentration of substrate in the receiver chamber, CD^o is the concentration of substrate in the donor chamber at time zero, VR is the volume of buffer in the receiver chamber, A is the surface area of the insert filter membrane, and ∆t is the time over which permeability is measured.

OATP2B1 = molecular target: T2, OATP2B1 (Homo sapiens, UniProt O94956); experiment: Inhibition of prototypical substrate (E3S) uptake by TCMCB07 in HEK293/OATP2B1 cells; type: in vitro ADME
T2 construct: host or cells: HEK293
T2 sequence (O94956 1-709): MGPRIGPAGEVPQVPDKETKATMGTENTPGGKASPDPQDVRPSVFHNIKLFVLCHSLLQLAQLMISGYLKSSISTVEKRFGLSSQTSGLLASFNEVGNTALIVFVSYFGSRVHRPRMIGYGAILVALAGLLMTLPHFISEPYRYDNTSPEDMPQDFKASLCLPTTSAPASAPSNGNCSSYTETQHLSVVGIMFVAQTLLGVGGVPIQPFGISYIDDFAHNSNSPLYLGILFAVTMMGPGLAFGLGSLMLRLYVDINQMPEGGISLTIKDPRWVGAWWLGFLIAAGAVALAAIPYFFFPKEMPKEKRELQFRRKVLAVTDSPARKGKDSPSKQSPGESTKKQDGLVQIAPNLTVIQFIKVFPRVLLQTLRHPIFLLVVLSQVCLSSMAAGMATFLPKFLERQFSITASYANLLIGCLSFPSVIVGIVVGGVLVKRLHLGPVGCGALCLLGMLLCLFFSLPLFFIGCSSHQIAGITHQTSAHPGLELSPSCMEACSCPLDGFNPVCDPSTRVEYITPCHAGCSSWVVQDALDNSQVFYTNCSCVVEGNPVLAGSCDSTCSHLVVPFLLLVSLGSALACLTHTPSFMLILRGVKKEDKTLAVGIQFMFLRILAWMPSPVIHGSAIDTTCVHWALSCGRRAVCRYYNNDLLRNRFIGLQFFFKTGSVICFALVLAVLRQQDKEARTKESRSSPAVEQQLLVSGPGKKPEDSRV
Description: (§1) Cells were then washed three times × 1.0 mL each with pre‐warmed Hank's Balanced Salt Solution (HBSS) buffer. A 0.5 mL aliquot of uptake buffer [HBSS plus 10 mM 4‐(2‐hydroxyethyl)‐1‐piperazineethanesulfonic acid (HEPES), pH 7.4], containing the radiolabelled prototypical substrate and mannitol, was then incubated for various times up to 60 min to determine the optimal incubation time for subsequent experiments (i.e. time of sampling during linear uptake conditions). At the designated times, 1.0 mL of ice‐cold HBSS buffer was added to stop uptake after which the cells were rinsed three times with 1.0 mL with ice‐cold HBSS. Hyamine hydroxide (0.33 mL) was then added to each well to lyse the cells. The cells were transferred into a scintillation vial and mixed with 6.0 mL of cytosine scintillation cocktail. Radioactivity of the solubilized cells was determined with a dual‐channel liquid scintillation counter (Beckman LS 6000; Beckman Coulter Inc., Fullerton, CA) and the protein quantified by a bicinchoninic acid protein assay kit (Pierce Biotechnology; Rockford, IL).

OATP1B1 = molecular target: T3, OATP1B1 (Homo sapiens, UniProt Q9Y6L6); experiment: Inhibition of prototypical substrate (E17βG) uptake by TCMCB07 in HEK293/OATP1B1 cells; type: in vitro ADME
T3 construct: host or cells: HEK293
T3 sequence (Q9Y6L6 1-691): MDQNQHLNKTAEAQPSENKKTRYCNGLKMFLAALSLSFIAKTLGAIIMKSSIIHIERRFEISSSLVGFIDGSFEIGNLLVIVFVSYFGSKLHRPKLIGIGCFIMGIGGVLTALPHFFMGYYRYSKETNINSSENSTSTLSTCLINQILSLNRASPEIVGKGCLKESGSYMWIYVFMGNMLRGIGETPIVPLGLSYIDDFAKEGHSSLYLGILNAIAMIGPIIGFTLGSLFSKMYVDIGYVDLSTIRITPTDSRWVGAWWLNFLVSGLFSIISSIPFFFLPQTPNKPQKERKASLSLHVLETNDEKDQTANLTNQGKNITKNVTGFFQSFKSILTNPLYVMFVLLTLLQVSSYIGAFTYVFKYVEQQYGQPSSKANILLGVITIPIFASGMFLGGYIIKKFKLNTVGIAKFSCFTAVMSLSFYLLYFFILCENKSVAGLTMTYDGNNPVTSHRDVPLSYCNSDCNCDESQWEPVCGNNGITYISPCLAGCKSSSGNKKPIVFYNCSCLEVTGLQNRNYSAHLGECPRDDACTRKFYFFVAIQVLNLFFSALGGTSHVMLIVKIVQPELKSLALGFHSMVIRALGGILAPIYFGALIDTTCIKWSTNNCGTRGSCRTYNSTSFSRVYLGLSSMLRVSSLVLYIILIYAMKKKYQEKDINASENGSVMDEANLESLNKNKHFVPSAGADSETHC
Description: as §1

OAT3 = molecular target: T4, OAT3 (Homo sapiens, UniProt Q8TCC7); experiment: Inhibition of prototypical substrate (E3S) uptake by TCMCB07 in HEK293/OAT3 cells; type: in vitro ADME; conditions: substrate 1.0 μM [3H]E3S, 5.0 min, up to 1000 μM TCMCB07
T4 construct: host or cells: HEK293
T4 sequence (Q8TCC7 1-542): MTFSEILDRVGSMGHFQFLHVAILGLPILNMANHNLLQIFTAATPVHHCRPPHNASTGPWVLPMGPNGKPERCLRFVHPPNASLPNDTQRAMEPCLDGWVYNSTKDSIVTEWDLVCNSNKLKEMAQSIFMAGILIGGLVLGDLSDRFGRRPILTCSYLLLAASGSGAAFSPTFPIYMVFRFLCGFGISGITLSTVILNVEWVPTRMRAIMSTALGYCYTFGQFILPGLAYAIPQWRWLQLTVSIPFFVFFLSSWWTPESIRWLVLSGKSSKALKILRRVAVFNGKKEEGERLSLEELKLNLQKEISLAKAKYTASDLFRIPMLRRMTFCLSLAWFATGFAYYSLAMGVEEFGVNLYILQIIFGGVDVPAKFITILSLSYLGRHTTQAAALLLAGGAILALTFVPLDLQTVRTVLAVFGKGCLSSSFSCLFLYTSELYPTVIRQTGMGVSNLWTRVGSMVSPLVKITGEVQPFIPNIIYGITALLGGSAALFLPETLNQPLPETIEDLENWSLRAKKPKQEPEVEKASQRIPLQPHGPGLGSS
Description: as §1

T1 sequence (P08183 whole entry): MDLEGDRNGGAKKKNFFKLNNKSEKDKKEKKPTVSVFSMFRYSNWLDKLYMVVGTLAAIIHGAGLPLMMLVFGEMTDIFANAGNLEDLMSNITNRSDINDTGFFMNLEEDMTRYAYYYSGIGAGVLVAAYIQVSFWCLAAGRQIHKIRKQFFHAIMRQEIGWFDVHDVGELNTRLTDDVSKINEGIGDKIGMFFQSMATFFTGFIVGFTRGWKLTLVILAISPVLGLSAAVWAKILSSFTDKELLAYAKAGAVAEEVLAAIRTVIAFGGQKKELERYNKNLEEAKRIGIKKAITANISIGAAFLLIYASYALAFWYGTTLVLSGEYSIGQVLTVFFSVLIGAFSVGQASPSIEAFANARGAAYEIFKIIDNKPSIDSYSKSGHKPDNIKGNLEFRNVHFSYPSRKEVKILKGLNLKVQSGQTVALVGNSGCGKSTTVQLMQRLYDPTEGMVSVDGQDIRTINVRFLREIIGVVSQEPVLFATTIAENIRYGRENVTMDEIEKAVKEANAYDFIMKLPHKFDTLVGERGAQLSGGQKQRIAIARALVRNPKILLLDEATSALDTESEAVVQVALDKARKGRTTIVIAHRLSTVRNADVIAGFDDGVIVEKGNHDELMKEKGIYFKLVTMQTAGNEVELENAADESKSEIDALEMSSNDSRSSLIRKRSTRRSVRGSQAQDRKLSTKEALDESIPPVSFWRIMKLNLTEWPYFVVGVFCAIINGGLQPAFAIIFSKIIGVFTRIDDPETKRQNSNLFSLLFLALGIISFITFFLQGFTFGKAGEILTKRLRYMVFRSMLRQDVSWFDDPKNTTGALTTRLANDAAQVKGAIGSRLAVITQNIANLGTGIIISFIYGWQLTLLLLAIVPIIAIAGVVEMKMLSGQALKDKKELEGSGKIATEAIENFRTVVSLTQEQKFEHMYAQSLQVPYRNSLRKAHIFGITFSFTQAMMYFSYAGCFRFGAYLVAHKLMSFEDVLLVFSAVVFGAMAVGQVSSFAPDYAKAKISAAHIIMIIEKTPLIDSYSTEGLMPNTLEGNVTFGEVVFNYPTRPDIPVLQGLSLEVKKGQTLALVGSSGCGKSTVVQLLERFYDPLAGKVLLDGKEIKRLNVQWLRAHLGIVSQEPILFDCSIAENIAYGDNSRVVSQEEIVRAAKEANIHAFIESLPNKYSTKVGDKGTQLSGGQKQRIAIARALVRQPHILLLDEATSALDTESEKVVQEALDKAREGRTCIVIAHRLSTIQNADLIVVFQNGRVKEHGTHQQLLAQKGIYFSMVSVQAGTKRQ

With `CCCC[C@H](NC(C)=O)C(=O)N[C@H]1CC(=O)NCCCC[C@@H](C(=O)N[C@@H](C(=O)N2CCC[C@@H]2C(N)=O)C(C)C)NC(=O)[C@H](Cc2c[nH]c3ccccc23)NC(=O)[C@H](CCCN=C(N)N)NC(=O)[C@@H](Cc2ccc3ccccc3c2)NC(=O)[C@@H]2CCCN2C1=O` [TCMCB07, Ac‐Nle‐c[Asp‐Pro‐dNal2′‐Arg‐Trp‐Lys]‐dVal‐dPro‐NH2] (Ac-[Nle]DP[d2Nal]RWK[dV][dP]-NH2; lactam 2-7) the oral absorption [1] was 24.2%, the dose excreted at 24 h ([1]; iv, 23.3 mg/kg, % Urinary recovery, intravenous TCMCB07) was 14% and the dose excreted at 24 h ([1]; iv, faecal (biliary) share of total recovery (faeces/(urine + faeces))) was 76%. For the same molecule, the dose excreted at 24 h ([1]; po, 23.3 mg/kg, % Urinary recovery, oral TCMCB07) was 5%, the dose excreted at 24 h ([1]; po, faecal share of total recovery (faeces/(urine + faeces))) was 95% and the “decrease of MDR1‐mediated permeability of digoxin, A to B direction” value (human P‐gp (ABCB1, MDR1); in the presence of 500 μM TCMCB07, decreased by) was 27%. The “increase of MDR1‐mediated permeability of digoxin, B to A direction” value (human P‐gp (ABCB1, MDR1); in the presence of 500 μM TCMCB07, increased by) was 68%, the “effect on P‐gp (MDR1)‐mediated permeability of prototypical substrate” value (human P‐gp (ABCB1, MDR1); transfected cells, 500 μM TCMCB07) was “did not affect” and the IC50 (OATP2B1) was 524 ± 83 µM. For the same molecule, the IC50 (OATP1B1) was 6.8 ± 1 µM, the Slope factor (OATP1B1; slope factor n of Eqn 1, OATP1B1, substrate E17βG) was 1.0 ± 0.1 and the IC50 (OAT3) was “could not be determined”.
